Target: T1, human PDE2A1 (Homo sapiens, UniProt O00408)
T1 construct: GST; purchased BPS Bioscience (San Diego, Calif.) 60020; host or cells: insect cells
Test: IMAP FP PDE assay, human PDE2A1
Type: biochemical
Settings: Lab A; read-out: Human PDE2 Ki (nM) Lab A
In short: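 FP (IMAP) read after 60 min room-temperature reaction of insect-cell GST-human PDE2A1 with 50 nM FAM-cAMP plus 1000 nM cGMP (pH 7.2 Tris, Mg2+, DTT). Compounds titrated 3-fold over ten points. Apparent Ki derived assuming KM of 10,000 nM; enzyme at 20% substrate turnover.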

T1 sequence (O00408 1-920 isoform O00408-2): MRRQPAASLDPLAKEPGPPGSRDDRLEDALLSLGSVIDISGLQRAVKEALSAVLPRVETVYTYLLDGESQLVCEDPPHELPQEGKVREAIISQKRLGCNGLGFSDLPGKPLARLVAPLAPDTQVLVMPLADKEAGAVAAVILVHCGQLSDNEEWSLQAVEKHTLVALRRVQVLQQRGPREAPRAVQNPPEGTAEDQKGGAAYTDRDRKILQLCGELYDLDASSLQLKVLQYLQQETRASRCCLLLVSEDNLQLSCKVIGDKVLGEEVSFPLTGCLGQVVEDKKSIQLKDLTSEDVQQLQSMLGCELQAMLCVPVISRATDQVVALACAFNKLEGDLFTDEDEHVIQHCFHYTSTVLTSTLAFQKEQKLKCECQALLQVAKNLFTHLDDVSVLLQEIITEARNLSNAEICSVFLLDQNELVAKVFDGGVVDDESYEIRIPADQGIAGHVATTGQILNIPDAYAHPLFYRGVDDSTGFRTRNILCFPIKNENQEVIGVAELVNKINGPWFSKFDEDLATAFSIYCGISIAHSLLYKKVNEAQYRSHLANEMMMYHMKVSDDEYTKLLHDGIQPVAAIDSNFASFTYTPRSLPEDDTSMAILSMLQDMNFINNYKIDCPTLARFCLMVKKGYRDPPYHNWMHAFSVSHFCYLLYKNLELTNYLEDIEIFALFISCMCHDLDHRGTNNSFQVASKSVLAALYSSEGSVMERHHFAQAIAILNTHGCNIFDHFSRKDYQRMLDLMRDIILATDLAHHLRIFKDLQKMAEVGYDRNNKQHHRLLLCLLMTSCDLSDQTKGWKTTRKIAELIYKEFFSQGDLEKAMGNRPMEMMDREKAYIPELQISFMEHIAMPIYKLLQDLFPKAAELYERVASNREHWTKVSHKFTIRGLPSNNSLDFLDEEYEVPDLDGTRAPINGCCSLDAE

| SMILES | Ki |
| --- | --- |
| Cc1nc2c(c(CO)nn2C(C)c2ccc(C(F)(F)F)cc2)c(=O)[nH]1 (stereo not drawn) [Example 7, 3-(Hydroxymethyl)-6-methyl-1-(1-(4-(trifluoromethyl)phenyl)ethyl)-1H-pyrazolo[3,4-d]pyrimidin-4(5H)-one] | 11 nM |
| COc1cccc(Cc2nc3c(c(C)nn3C(C)c3ccc(C(F)(F)F)cc3)c(=O)[nH]2)c1 (stereo not drawn) [Example 45, 6-(3-Methoxybenzyl)-3-methyl-1-{1-[4-(trifluoromethyl)phenyl]ethyl}-1,5-dihydro-4H-pyrazolo[3,4-d]pyrimidin-4-one] | 22 nM |
| COCc1nc2c(c(C)nn2C(C)c2ccc(C(F)(F)F)cc2)c(=O)[nH]1 (stereo not drawn) [Example 48, 6-(Methoxymethyl)-3-methyl-1-{1-[4-(trifluoromethyl)phenyl]ethyl}-1,5-dihydro-4H-pyrazolo[3,4-d]pyrimidin-4-one] | 21 nM |
| Cc1nc2c(c(CO)nn2C(C)c2ccc(OC(F)(F)F)cc2)c(=O)[nH]1 (stereo not drawn) [Example 4] | 4.6 nM |
| Cc1nc2c(c(CO)nn2C(C)(C)c2ccc(C(F)(F)F)cc2)c(=O)[nH]1 [Example 9, 3-(Hydroxymethyl)-6-methyl-1-{1-methyl-1-[4-(trifluoromethyl)phenyl]ethyl}-1,5-dihydro-4H-pyrazolo[3,4-d]pyrimidin-4-one] | 27 nM |
| COc1ccc(Cc2nc3c(c(C)nn3C(C)c3ccc(C(F)(F)F)cc3)c(=O)[nH]2)cc1 (stereo not drawn) [Example 46, 6-(4-Methoxybenzyl)-3-methyl-1-{1-[4-(trifluoromethyl)phenyl]ethyl}-1,5-dihydro-4H-pyrazolo[3,4-d]pyrimidin-4-one] | 8.6 nM |
| Cc1ccc(C(C)n2nc(CO)c3c(=O)[nH]c(C)nc32)cc1 (stereo not drawn) [Example 2, 3-(Hydroxymethyl)-6-methyl-1-(1-p-tolylethyl)-1H-pyrazolo[3,4-d]pyrimidin-4(5H)-one] | 18 nM |
| Cc1nn(C(C)c2ccc(C(F)(F)F)cc2)c2nc(-c3ccco3)[nH]c(=O)c12 (stereo not drawn) [Example 49, 6-Furan-2-yl-3-methyl-1-{1-[4-(trifluoromethyl)phenyl]ethyl}-1,5-dihydro-4H-pyrazolo[3,4-d]pyrimidin-4-one] | 5.4 nM |
| Cc1nn(C(C)c2ccc(C(F)(F)F)cc2)c2nc(-c3cnn(C)c3)[nH]c(=O)c12 (stereo not drawn) [Example 53, 3-Methyl-6-(1-methyl-1H-pyrazol-4-yl)-1-{1-[4-(trifluoromethyl)phenyl]ethyl}-1,5-dihydro-4H-pyrazolo[3,4-d]pyrimidin-4-one] | 17 nM |
| CCOCCc1nc2c(c(C)nn2C(C)c2ccc(C(F)(F)F)cc2)c(=O)[nH]1 (stereo not drawn) [Example 35, 6-(2-Ethoxyethyl)-3-methyl-1-(1-(4-(trifluoromethyl)phenyl)ethyl)-1H-pyrazolo[3,4-d]pyrimidin-4(5H)-one] | 105 nM |
| Cc1nn(C(C)c2ccc(C(F)(F)F)cc2)c2nc(C3CC3)[nH]c(=O)c12 (stereo not drawn) [Example 42, 6-Cyclopropyl-3-methyl-1-{1-[4-(trifluoromethyl)phenyl]ethyl}-1,5-dihydro-4H-pyrazolo[3,4-d]pyrimidin-4-one] | 40 nM |
| Cc1nn(C(C)c2ccc(C(F)(F)F)cc2)c2nc(C3CCC3)[nH]c(=O)c12 (stereo not drawn) [Example 39, 6-Cyclobutyl-3-methyl-1-{1-[4-(trifluoromethyl)phenyl]ethyl}-1,5-dihydro-4H-pyrazolo[3,4-d]pyrimidin-4-one] | 84 nM |
| Cc1nn(C(C)c2ccc(C(F)(F)F)cc2)c2nc(-c3ccccn3)[nH]c(=O)c12 (stereo not drawn) [Example 52, 3-Methyl-6-pyridin-2-yl-1-{1-[4-(trifluoromethyl)phenyl]ethyl}-1,5-dihydro-4H-pyrazolo[3,4-d]pyrimidin-4-one] | 18 nM |

The next lines start with the values.

| Ki | SMILES |
| --- | --- |
| 2.7 nM | Cc1nc2c(c(CF)nn2C(C)c2ccc(C(F)(F)F)cc2)c(=O)[nH]1 (stereo not drawn) [Example 204, 3-(Fluoromethyl)-6-methyl-1-{1-[4-(trifluoromethyl)phenyl]ethyl}-1,5-dihydro-4H-pyrazolo[3,4-d]pyrimidin-4-one] |
| ~11 nM | Cc1nc2c(c(C(C)O)nn2C(C)c2ccc(C(F)(F)F)cc2)c(=O)[nH]1 (stereo not drawn) [Example 328, 3-(1-Hydroxyethyl)-6-methyl-1-{1-[4-(trifluoromethyl)phenyl]ethyl}-1,5-dihydro-4H-pyrazolo[3,4-d]pyrimidin-4-one] |
| 8.3 nM | Cc1ccc(C(C)n2nc(CF)c3c(=O)[nH]c(C)nc32)cc1 (stereo not drawn) [Example 203, 3-(Fluoromethyl)-6-methyl-1-(1-p-tolylethyl)-1H-pyrazolo[3,4-d]pyrimidin-4(5H)-one] |

Same assay, conditions: Lab B; read-out: Human PDE2 Ki (nM) Lab B

| SMILES | Ki |
| --- | --- |
| Cc1nc2c(c(CO)nn2C(C)c2ccc(C(F)(F)F)cc2)c(=O)[nH]1 (stereo not drawn) [Example 7, 3-(Hydroxymethyl)-6-methyl-1-(1-(4-(trifluoromethyl)phenyl)ethyl)-1H-pyrazolo[3,4-d]pyrimidin-4(5H)-one] | 17 nM |
| Cc1nc2c(c(C(F)F)nn2C(c2ccc(OC(F)(F)F)c(F)c2)C2CC2)c(=O)[nH]1 (stereo not drawn) [Example 193, 1-(Cyclopropyl(3-fluoro-4-(trifluoromethoxy)phenyl)methyl)-3-(difluoromethyl)-6-methyl-1H-pyrazolo[3,4-d]pyrimidin-4(5H)-one] | 1.8 nM |
| Cc1nc2c(c(C(F)F)nn2C(C)c2ccc(C(F)(F)F)cc2)c(=O)[nH]1 (single isomer, unassigned) [Example 176] | 1.3 nM |
| Cc1nc2c(c(CO)nn2C(C)c2ccc(OC(F)(F)F)cc2)c(=O)[nH]1 (stereo not drawn) [Example 4] | 5.9 nM |
| Cc1nc2c(c(CO)nn2C(C)c2ccc(C(F)(F)F)c(F)c2)c(=O)[nH]1 (single isomer, unassigned) [Example 13, (S)- or (R)-1-(1-(3-Fluoro-4-(trifluoromethyl)phenyl)ethyl)-3-(hydroxymethyl)-6-methyl-1H-pyrazolo[3,4-d]pyrimidin-4(5H)-one] | 1.7 nM |
| Cc1nc2c(c(CO)nn2C(C)(C)c2ccc(C(F)(F)F)cc2)c(=O)[nH]1 [Example 9, 3-(Hydroxymethyl)-6-methyl-1-{1-methyl-1-[4-(trifluoromethyl)phenyl]ethyl}-1,5-dihydro-4H-pyrazolo[3,4-d]pyrimidin-4-one] | 60 nM |
| COc1ccc(C(=O)c2nc3c(c(C(F)F)nn3C(C)c3ccc(C(F)(F)F)cc3)c(=O)[nH]2)cc1OC (stereo not drawn) [Example 198, 3-(Difluoromethyl)-6-(3,4-dimethoxybenzoyl)-1-(1-(4-(trifluoromethyl)phenyl)ethyl)-1H-pyrazolo[3,4-d]pyrimidin-4(5H)-one] | 21 nM |
| CCC(c1ccc(C(F)(F)F)cc1)n1nc(CO)c2c(=O)[nH]c(C)nc21 (single isomer, unassigned) [Example 132, (R)- or (S)-3-(Hydroxymethyl)-6-methyl-1-(1-(4-(trifluoro-methyl)phenyl)propyl)-1H-pyrazolo[3,4-d]pyrimidin-4(5H)-one] | 1.1 nM |
| Cc1ccc(C(C)n2nc(CO)c3c(=O)[nH]c(C)nc32)cc1 (stereo not drawn) [Example 2, 3-(Hydroxymethyl)-6-methyl-1-(1-p-tolylethyl)-1H-pyrazolo[3,4-d]pyrimidin-4(5H)-one] | 28 nM |
| Cc1nc2c(c(CO)nn2C(c2ccc(C(F)(F)F)c(F)c2)C(C)(C)C)c(=O)[nH]1 (single isomer, unassigned) [Example 129, (S)- or (R)-1-(1-(3-Fluoro-4-(trifluoromethyl)phenyl)-2,2-dimethylpropyl)-3-(hydroxyl-methyl)-6-methyl-1H-pyrazolo-[3,4-d]pyrimidin-4(5H)-one] | 8.9 nM |
| Cc1nc2c(c(CO)nn2C(C)c2ccc(OC(F)(F)F)c(F)c2)c(=O)[nH]1 (single isomer, unassigned) [Example 10, (R)- or (S)-1-(1-(3-Fluoro-4-(trifluoromethoxy)phenyl)ethyl)-3-(hydroxymethyl)-6-methyl-1H-pyrazolo[3,4-d]pyrimidin-4(5H)-one] | 50 nM |
| Cc1nc2c(c(CO)nn2[C@@H](C)c2ccc(OC(F)(F)F)cc2)c(=O)[nH]1 [Example 158, (S)-3-(Hydroxymethyl)-6-methyl-1-(1-(4-(trifluoromethoxy)phenyl)ethyl)-1H-pyrazolo[3,4-d]pyrimidin-4(5H)-one] | 3.1 nM |
| Cc1nc2c(c(CO)nn2[C@@H](C)c2ccc(C(C)(C)C)cc2)c(=O)[nH]1 [Example 157, (S)-1-(1-(4-tert-Butylphenyl)ethyl)-3-(hydroxymethyl)-6-methyl-1H-pyrazolo[3,4-d]pyrimidin-4(5H)-one] | 1.1 nM |

Further lines, results first:

| Ki | SMILES |
| --- | --- |
| 0.99 nM | Cc1nc2c(c(CF)nn2C(c2ccc(C(F)(F)F)cc2)C2(C)CC2)c(=O)[nH]1 (single isomer, unassigned) [Example 209] |
| 43 nM | Cc1nc2c(c(CF)nn2C(c2ccc(C(F)(F)F)cc2)C(C)C)c(=O)[nH]1 (single isomer, unassigned) [Example 212, (R)- or (S)-3-(Fluoromethyl)-6-methyl-1-(2-methyl-1-(4-(trifluoromethyl)phenyl)propyl)-1H-pyrazolo[3,4-d]pyrimidin-4(5H)-one] |
| 307 nM | Cc1nc2c(c(CF)nn2C(C)c2ccc(C(C)(C)C)cc2)c(=O)[nH]1 (single isomer, unassigned) [Example 214, (R)- or (S)-1-(1-(4-tert-Butylphenyl)ethyl)-3-(fluoromethyl)-6-methyl-1H-pyrazolo[3,4-d]pyrimidin-4(5H)-one] |
| 2 nM | Cc1nc2c(c(CF)nn2C(C)c2ccc(S(F)(F)(F)(F)F)cc2)c(=O)[nH]1 (single isomer, unassigned) [Example 200] |
| 0.48 nM | Cc1nc2c(c(CF)nn2C(C)c2ccc(C(C)(C)C)cc2)c(=O)[nH]1 (single isomer, unassigned) [Example 215, (S)- or (R)-1-(1-(4-tert-Butylphenyl)ethyl)-3-(fluoromethyl)-6-methyl-1H-pyrazolo[3,4-d]pyrimidin-4(5H)-one] |
| 36 nM | Cc1nc2c(c(CF)nn2C(C)c2ccc(OC(F)(F)F)c(F)c2)c(=O)[nH]1 (single isomer, unassigned) [Example 216, (R)- or (S)-1-(1-(3-Fluoro-4-(trifluoromethoxy)phenyl)ethyl)-3-(fluoromethyl)-6-methyl-1H-pyrazolo[3,4-d]pyrimidin-4(5H)-one] |
| 0.19 nM | Cc1nc2c(c(CF)nn2C(c2ccc(C(F)(F)F)cc2)C(C)C)c(=O)[nH]1 (single isomer, unassigned) [Example 213, (S)- or (R)-3-(Fluoromethyl)-6-methyl-1-(2-methyl-1-(4-(trifluoromethyl)phenyl)propyl)-1H-pyrazolo[3,4-d]pyrimidin-4(5H)-one] |
| 83 nM | Cc1nc2c(c(CF)nn2C(C)c2ccc(OC(F)(F)F)cc2)c(=O)[nH]1 (single isomer, unassigned) [Example 206, (R)- or (S)-3-(Fluoromethyl)-6-methyl-1-(1-(4-(trifluoro-methoxy-)phenyl)ethyl)-1H-pyrazolo[3,4-d]pyrimidin-4(5H)-one] |
| 31 nM | Cc1nc2c(c(C(C)O)nn2C(C)c2ccc(C(F)(F)F)cc2)c(=O)[nH]1 (stereo not drawn) [Example 328, 3-(1-Hydroxyethyl)-6-methyl-1-{1-[4-(trifluoromethyl)phenyl]ethyl}-1,5-dihydro-4H-pyrazolo[3,4-d]pyrimidin-4-one] |
| 17 nM | Cc1ccc(C(C)n2nc(CF)c3c(=O)[nH]c(C)nc32)cc1 (stereo not drawn) [Example 203, 3-(Fluoromethyl)-6-methyl-1-(1-p-tolylethyl)-1H-pyrazolo[3,4-d]pyrimidin-4(5H)-one] |
